Data published in PubChem BioAssay (NCI).
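The compound was tested at five concentrations on cells cultured in 96-well plates, with a 48-hour exposure period. The concentration for 50% growth inhibition is given as GI50. TGI: total growth inhibition.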

Key:
Test in all cases: inhibition of tumour cell growth, NCI panel, 48 h
[1] = tested on: SK-MEL-5 melanoma
[2] = tested on: K-562 leukemia
[3] = tested on: MDA-MB-231 breast
[4] = tested on: RPMI-8226 leukemia
[5] = tested on: KM12 colon
[6] = tested on: HL-60(TB) leukemia
[7] = tested on: A549 NSCLC
[8] = tested on: SNB-75 CNS

`O=C(NCCN1CCOCC1)Nc1ccc(-c2cc3c(Nc4ccc(Oc5cccc(C(F)(F)F)c5)c(Cl)c4)ncnc3s2)cc1` showed a GI50 [1] of 0.916 µM, a TGI [1] of 1.71 µM and a GI50 [2] of 0.706 µM. For the same compound, the TGI [2] was 3.31 µM, the GI50 [3] was 1.07 µM and the TGI [3] was 2.54 µM. For the same compound, the GI50 [4] was 1.4 µM, the TGI [4] was 3.54 µM and the GI50 [5] was 1.02 µM. For the same compound, the TGI [5] was 2.12 µM, the GI50 [6] was 1.26 µM and the TGI [6] was 3.37 µM. For the same compound, the GI50 [7] was 1.04 µM, the TGI [7] was 2.42 µM and the GI50 [8] was 0.642 µM. It also gave a TGI [8] of 1.9 µM.

In the case of `COc1cc(C2CC(c3ccc4c(c3)OCO4)=NN2C(C)=O)cc(OC)c1OC` (stereo not given), the GI50 [1] was 0.419 µM, the TGI [1] was 8.07 µM and the GI50 [2] was 0.353 µM. The TGI [2] was over 100 µM, the GI50 [3] was 4.07 µM and the TGI [3] was over 100 µM. For the same compound, the GI50 [4] was 2.74 µM, the TGI [4] was over 25.7 µM and the GI50 [5] was 0.422 µM. The TGI [5] was 52.9 µM, the GI50 [6] was 0.316 µM and the TGI [6] was 2.92 µM. It also gave a GI50 [7] of 2.42 µM, a TGI [7] of over 100 µM and a GI50 [8] of 0.398 µM. For the same compound, the TGI [8] was 3.5 µM.

Work on `O=C(O)C(Br)C(Br)c1ccccc1[N+](=O)[O-]` (stereo not given) yielded a TGI [1] of over 100 µM, a TGI [2] of over 100 µM and a TGI [3] of over 100 µM. For the same compound, the TGI [4] was over 100 µM, the TGI [5] was over 100 µM and the TGI [7] was over 100 µM. For the same compound, the TGI [8] was over 100 µM.

With `CCCCCCNC(=O)Oc1ccc(/C(=C(\C)c2ccccc2)c2ccc(OCCN3CCCCC3)cc2)cc1` the GI50 [1] was 1.63 µM, the TGI [1] was 2.99 µM and the GI50 [2] was 1.7 µM. For the same compound, the TGI [2] was 4.96 µM, the GI50 [3] was 2.09 µM and the TGI [3] was 4.96 µM. It also gave a GI50 [4] of 2.38 µM, a TGI [4] of 5.57 µM and a GI50 [5] of 2.61 µM. For the same compound, the TGI [5] was 7.63 µM, the GI50 [7] was 4.31 µM and the TGI [7] was 18.6 µM. The GI50 [8] was 2.01 µM and the TGI [8] was 10.1 µM.

Compound `COc1ccc(OC)c(-c2cc(-c3ccccc3)nn2-c2ccc(S(N)(=O)=O)cc2)c1` has a GI50 [1] of 16.5 µM, a TGI [1] of 31.3 µM and a GI50 [2] of 2.68 µM. It also gave a TGI [2] of 6.38 µM, a GI50 [3] of 11.1 µM and a TGI [3] of 27 µM. The GI50 [4] was 1.93 µM, the TGI [4] was 4.84 µM and the GI50 [5] was 6.93 µM. For the same compound, the TGI [5] was 21.6 µM, the GI50 [6] was 23.6 µM and the TGI [6] was over 100 µM. It also gave a GI50 [7] of 13.1 µM and a TGI [7] of 42.6 µM.

With `COc1cccc(Cn2cc3c(c2)-c2oncc2CC3)c1` the GI50 [1] was 0.44 µM, the TGI [1] was 3.09 µM and the GI50 [2] was 0.315 µM. It also gave a TGI [2] of over 100 µM, a GI50 [3] of 0.636 µM and a TGI [3] of 96.8 µM. It also gave a GI50 [4] of 0.365 µM, a GI50 [5] of 0.379 µM and a TGI [5] of 3.02 µM. The GI50 [6] was 0.247 µM, the TGI [6] was 0.762 µM and the GI50 [7] was 0.559 µM. For the same compound, the TGI [7] was over 56.1 µM, the GI50 [8] was 0.211 µM and the TGI [8] was 0.895 µM.

`O=C1/C(=C/c2ccc([N+](=O)[O-])s2)Oc2ccccc21` showed a GI50 [1] of 1.18 µM, a TGI [1] of 2.62 µM and a GI50 [2] of 0.243 µM. The TGI [2] was 0.728 µM, the GI50 [3] was 0.279 µM and the TGI [3] was 0.818 µM. For the same compound, the GI50 [4] was 0.379 µM, the TGI [4] was 3.57 µM and the GI50 [5] was 0.352 µM. For the same compound, the TGI [5] was 1.28 µM, the GI50 [6] was 0.96 µM and the GI50 [7] was 1.66 µM. It also gave a TGI [7] of 3.88 µM, a GI50 [8] of 1.03 µM and a TGI [8] of 5.98 µM.

Compound `CCCCCCCCCCCCOC1C(C(COC2OC(C(O)CN3CCCCC3)C3OC(C)(C)OC23)NC(=O)Nc2ccccc2)OC2OC(C)(C)OC21` (stereo not given) has a GI50 [1] of 8.66 µM, a TGI [1] of 21.7 µM and a GI50 [2] of 2.06 µM. The TGI [2] was 5.65 µM, the GI50 [3] was 12.8 µM and the TGI [3] was 27.4 µM. The GI50 [4] was 5.32 µM, the TGI [4] was 15.3 µM and the GI50 [5] was 7.06 µM. It also gave a TGI [5] of 18.7 µM, a GI50 [6] of 3.96 µM and a TGI [6] of 11.3 µM. For the same compound, the GI50 [7] was 11.4 µM, the TGI [7] was 38 µM and the GI50 [8] was 13.6 µM. It also gave a TGI [8] of 29.8 µM.

Compound `CCN(CC)CCCCCOc1cc(O)c2c(=O)cc(-c3ccccc3)oc2c1` has a GI50 [1] of 1.91 µM, a TGI [1] of 3.83 µM and a GI50 [2] of 1.86 µM. The TGI [2] was 3.56 µM, the GI50 [3] was 1.49 µM and the TGI [3] was 4.34 µM. The GI50 [5] was 2.89 µM, the TGI [5] was 9.37 µM and the GI50 [6] was 2.67 µM. It also gave a TGI [6] of 7.1 µM, a GI50 [7] of 5.26 µM and a TGI [7] of 18.5 µM. For the same compound, the GI50 [8] was 13 µM and the TGI [8] was 25.6 µM.

`COc1ccc(C2C(c3ccccc3)C(=O)N2c2cc(OC)c(OC)c(OC)c2)cc1I` (stereo not given) showed a GI50 [1] of 0.224 µM, a TGI [1] of 0.729 µM and a GI50 [2] of 0.339 µM. For the same compound, the TGI [2] was over 100 µM, the GI50 [3] was 0.455 µM and the TGI [3] was over 100 µM. For the same compound, the GI50 [4] was 0.422 µM, the TGI [4] was over 100 µM and the GI50 [5] was 0.343 µM. For the same compound, the TGI [5] was over 100 µM, the GI50 [6] was 0.225 µM and the TGI [6] was 0.533 µM. For the same compound, the GI50 [7] was 0.479 µM, the TGI [7] was over 100 µM and the GI50 [8] was 6.01 µM. The TGI [8] was over 100 µM.

`Oc1ccc(/C=N/Nc2nc3ccccc3s2)c(O)c1` showed a GI50 [1] of 3.37 µM, a TGI [1] of over 100 µM and a GI50 [2] of 2.59 µM. It also gave a TGI [2] of over 100 µM, a GI50 [3] of 1.69 µM and a TGI [3] of 12.9 µM. It also gave a GI50 [4] of 2.55 µM, a TGI [4] of over 100 µM and a GI50 [5] of 2.18 µM. For the same compound, the TGI [5] was 15.8 µM, the GI50 [7] was 2.54 µM and the TGI [7] was 51.9 µM. It also gave a GI50 [8] of 1.51 µM and a TGI [8] of 9.96 µM.

`CN1CCN(Cc2ccc(NC(=O)c3[nH]ncc3Nc3ncnc4sccc34)cc2)CC1` was tested, and the GI50 [2] was 0.235 µM, the TGI [2] was over 100 µM and the GI50 [4] was 0.36 µM. For the same compound, the TGI [4] was 1.38 µM, the GI50 [5] was 0.297 µM and the TGI [5] was over 100 µM. It also gave a GI50 [6] of 0.334 µM, a TGI [6] of 1.07 µM and a GI50 [7] of 0.263 µM. It also gave a TGI [7] of over 100 µM, a GI50 [8] of 0.023 µM and a TGI [8] of 2.3 µM.

Compound `Cc1[nH]nc2c1N=C(c1ccccc1F)c1cc(C#N)ccc1N2` has a GI50 [1] of 0.0971 µM, a TGI [1] of 9.39 µM and a GI50 [2] of 0.11 µM. For the same compound, the TGI [2] was over 25 µM, the GI50 [3] was 2.59 µM and the TGI [3] was 11.7 µM. For the same compound, the GI50 [4] was 7.4 µM, the TGI [4] was 19.5 µM and the GI50 [5] was 0.111 µM. For the same compound, the TGI [5] was 6.48 µM, the GI50 [6] was 0.0969 µM and the TGI [6] was 8.71 µM. It also gave a GI50 [8] of 0.036 µM and a TGI [8] of 0.717 µM.

Work on `Oc1ccc(Br)cc1/C=N/NC(=S)NC12CC3CC(CC(C3)C1)C2` yielded a GI50 [1] of 1.72 µM, a TGI [1] of 3.74 µM and a GI50 [2] of 1.87 µM. The TGI [2] was 5.3 µM, the GI50 [3] was 1.95 µM and the TGI [3] was 5.54 µM. The GI50 [4] was 2.07 µM, the TGI [4] was 5.8 µM and the GI50 [5] was 1.8 µM. The TGI [5] was 4.35 µM, the GI50 [6] was 2.52 µM and the TGI [6] was 6.5 µM. For the same compound, the GI50 [7] was 1.82 µM, the TGI [7] was 5.07 µM and the GI50 [8] was 2.03 µM. The TGI [8] was 7.15 µM.

`O=C(Nc1cccc(C(F)(F)F)c1)c1cccc(NC2=C(Cl)C(=O)N(Cc3ccccc3)C2=O)c1` gave a GI50 [1] of 18 µM, a TGI [1] of 38.2 µM and a GI50 [2] of 3.02 µM. It also gave a TGI [2] of 17.6 µM, a GI50 [3] of 5.38 µM and a TGI [3] of over 100 µM. For the same compound, the GI50 [4] was 1.89 µM, the TGI [4] was 6.51 µM and the GI50 [5] was 44.8 µM. For the same compound, the TGI [5] was over 100 µM, the GI50 [6] was 5.36 µM and the TGI [6] was 28.7 µM. For the same compound, the GI50 [7] was 17 µM, the TGI [7] was over 100 µM and the GI50 [8] was 57.3 µM. The TGI [8] was over 100 µM.
